Source: publication PMC4080982, “Interactions of antagonists with subtypes of inositol 1,4,5-trisphosphate (IP3) receptor” (British Journal of Pharmacology, 2014)

How the values were obtained:
mouse IP3R2 = target: T1, mouse IP3R2 (Mus musculus, UniProt Q9Z329); assay: IP3-evoked Ca^2+ release from permeabilized DT40-IP3R2 cells; assay type: cell-based
T1 construct: different for NTs (NT2 > NT1 > > NT3) and full-length IP3Rs (IP3R3 > IP3R1 ≥ IP3R2); expressed in transfected cells
Description: (§1) We used DT40 cells lacking endogenous IP3Rs (Sugawara et al., [1997]), but stably expressing rat IP3R1 (GenBank accession number GQ233032.1; Pantazaka and Taylor, [2011]), mouse IP3R2 (GU980658.1; Tovey et al., [2010]) or rat IP3R3 (GQ233031.1; Rahman et al., [2009]). Cells were grown in suspension in RPMI 1640 medium supplemented with 10% FBS, 1% heat-inactivated chicken serum, 2 mM glutamine and 50 μM 2-mercaptoethanol at 37°C in humidified air containing 5% CO2. Cells were used or passaged when they reached a density of ∼1.5 × 10^6 cells mL^−1.
(§2) A low-affinity Ca^2+ indicator trapped within the ER of permeabilized DT40 cells was used to measure IP3-evoked Ca^2+ release (Tovey et al., [2006]; Saleem et al., [2012]). Briefly, the ER was loaded with indicator by incubating cells (∼5 × 10^7 mL^−1) in the dark with Mag-fluo-4AM (20 μM) in HEPES-buffered saline (HBS) containing 0.02% (v/v) Pluronic F127 for 1 h at 22°C. HBS had the following composition: 135 mM NaCl, 5.9 mM KCl, 11.6 mM HEPES, 1.5 mM CaCl2, 11.5 mM glucose, 1.2 mM MgCl2, pH 7.3. After permeabilization of the plasma membrane with saponin (10 μg·mL^−1, 4 min, 37°C) in Ca^2+-free cytosol-like medium (CLM), permeabilized cells were washed (650× g, 2 min) and resuspended (∼10^7 mL^−1) in Mg^2+-free CLM containing carbonyl cyanide 4-(trifluoromethoxy) phenylhydrazone (FCCP, 10 μM) to inhibit mitochondria, and supplemented with CaCl2 to give a final free [Ca^2+] of 220 nM after addition of 1.5 mM MgATP. Ca^2+-free CLM had the following composition: 2 mM NaCl, 140 mM KCl, 1 mM EGTA, 20 mM PIPES, 2 mM MgCl2, pH 7.0. Permeabilized cells were then distributed into 96-well plates (50 μL, 5 × 10^5 cells per well), centrifuged (300× g, 2 min) and used for experiments at 20°C. Addition of MgATP (1.5 mM) allowed Ca^2+ uptake by the ER, which was monitored at intervals of ∼1 s using a FlexStation-3 plate reader (MDS Analytical Devices, Berkshire, UK; Tovey et al., [2006]). After 2 min, when the ER had loaded to steady-state with Ca^2+, IP3 was added with CPA (10 μM) to inhibit further Ca^2+ uptake. IP3-evoked Ca^2+ release was expressed as a fraction of that released by ionomycin (1 μM; Tovey et al., [2006]). Similar methods were used to measure IP3-evoked Ca^2+ release from intact or permeabilized HEK cells (Tovey et al., [2008]). The timings of antagonist additions are described in the figure legends. The affinity of each competitive antagonist (pKD) was determined from the intercept on the abscissa of the Schild plot.
(§3) Concentration–effect relationships were fitted to Hill equations using Prism (version 5.0, GraphPad, San Diego, CA, USA), from which Hill coefficients (h), the fraction of the intracellular Ca^2+ stores released by a maximally effective concentrations of IP3, and pEC50 values were calculated.

rat IP3R1 = target: T2, rat IP3R1 (Rattus norvegicus, UniProt P29994); assay: IP3-evoked Ca^2+ release from permeabilized DT40-IP3R1 cells; assay type: cell-based
T2 construct: different for NTs (NT2 > NT1 > > NT3) and full-length IP3Rs (IP3R3 > IP3R1 ≥ IP3R2); expressed in transfected cells
Description: as §1, §2, §3

rat IP3R3 = target: T3, rat IP3R3 (Rattus norvegicus, UniProt Q63269); assay: IP3-evoked Ca^2+ release from permeabilized DT40-IP3R3 cells; assay type: cell-based
T3 construct: different for NTs (NT2 > NT1 > > NT3) and full-length IP3Rs (IP3R3 > IP3R1 ≥ IP3R2); expressed in transfected cells
T3 sequence (Q63269 whole entry): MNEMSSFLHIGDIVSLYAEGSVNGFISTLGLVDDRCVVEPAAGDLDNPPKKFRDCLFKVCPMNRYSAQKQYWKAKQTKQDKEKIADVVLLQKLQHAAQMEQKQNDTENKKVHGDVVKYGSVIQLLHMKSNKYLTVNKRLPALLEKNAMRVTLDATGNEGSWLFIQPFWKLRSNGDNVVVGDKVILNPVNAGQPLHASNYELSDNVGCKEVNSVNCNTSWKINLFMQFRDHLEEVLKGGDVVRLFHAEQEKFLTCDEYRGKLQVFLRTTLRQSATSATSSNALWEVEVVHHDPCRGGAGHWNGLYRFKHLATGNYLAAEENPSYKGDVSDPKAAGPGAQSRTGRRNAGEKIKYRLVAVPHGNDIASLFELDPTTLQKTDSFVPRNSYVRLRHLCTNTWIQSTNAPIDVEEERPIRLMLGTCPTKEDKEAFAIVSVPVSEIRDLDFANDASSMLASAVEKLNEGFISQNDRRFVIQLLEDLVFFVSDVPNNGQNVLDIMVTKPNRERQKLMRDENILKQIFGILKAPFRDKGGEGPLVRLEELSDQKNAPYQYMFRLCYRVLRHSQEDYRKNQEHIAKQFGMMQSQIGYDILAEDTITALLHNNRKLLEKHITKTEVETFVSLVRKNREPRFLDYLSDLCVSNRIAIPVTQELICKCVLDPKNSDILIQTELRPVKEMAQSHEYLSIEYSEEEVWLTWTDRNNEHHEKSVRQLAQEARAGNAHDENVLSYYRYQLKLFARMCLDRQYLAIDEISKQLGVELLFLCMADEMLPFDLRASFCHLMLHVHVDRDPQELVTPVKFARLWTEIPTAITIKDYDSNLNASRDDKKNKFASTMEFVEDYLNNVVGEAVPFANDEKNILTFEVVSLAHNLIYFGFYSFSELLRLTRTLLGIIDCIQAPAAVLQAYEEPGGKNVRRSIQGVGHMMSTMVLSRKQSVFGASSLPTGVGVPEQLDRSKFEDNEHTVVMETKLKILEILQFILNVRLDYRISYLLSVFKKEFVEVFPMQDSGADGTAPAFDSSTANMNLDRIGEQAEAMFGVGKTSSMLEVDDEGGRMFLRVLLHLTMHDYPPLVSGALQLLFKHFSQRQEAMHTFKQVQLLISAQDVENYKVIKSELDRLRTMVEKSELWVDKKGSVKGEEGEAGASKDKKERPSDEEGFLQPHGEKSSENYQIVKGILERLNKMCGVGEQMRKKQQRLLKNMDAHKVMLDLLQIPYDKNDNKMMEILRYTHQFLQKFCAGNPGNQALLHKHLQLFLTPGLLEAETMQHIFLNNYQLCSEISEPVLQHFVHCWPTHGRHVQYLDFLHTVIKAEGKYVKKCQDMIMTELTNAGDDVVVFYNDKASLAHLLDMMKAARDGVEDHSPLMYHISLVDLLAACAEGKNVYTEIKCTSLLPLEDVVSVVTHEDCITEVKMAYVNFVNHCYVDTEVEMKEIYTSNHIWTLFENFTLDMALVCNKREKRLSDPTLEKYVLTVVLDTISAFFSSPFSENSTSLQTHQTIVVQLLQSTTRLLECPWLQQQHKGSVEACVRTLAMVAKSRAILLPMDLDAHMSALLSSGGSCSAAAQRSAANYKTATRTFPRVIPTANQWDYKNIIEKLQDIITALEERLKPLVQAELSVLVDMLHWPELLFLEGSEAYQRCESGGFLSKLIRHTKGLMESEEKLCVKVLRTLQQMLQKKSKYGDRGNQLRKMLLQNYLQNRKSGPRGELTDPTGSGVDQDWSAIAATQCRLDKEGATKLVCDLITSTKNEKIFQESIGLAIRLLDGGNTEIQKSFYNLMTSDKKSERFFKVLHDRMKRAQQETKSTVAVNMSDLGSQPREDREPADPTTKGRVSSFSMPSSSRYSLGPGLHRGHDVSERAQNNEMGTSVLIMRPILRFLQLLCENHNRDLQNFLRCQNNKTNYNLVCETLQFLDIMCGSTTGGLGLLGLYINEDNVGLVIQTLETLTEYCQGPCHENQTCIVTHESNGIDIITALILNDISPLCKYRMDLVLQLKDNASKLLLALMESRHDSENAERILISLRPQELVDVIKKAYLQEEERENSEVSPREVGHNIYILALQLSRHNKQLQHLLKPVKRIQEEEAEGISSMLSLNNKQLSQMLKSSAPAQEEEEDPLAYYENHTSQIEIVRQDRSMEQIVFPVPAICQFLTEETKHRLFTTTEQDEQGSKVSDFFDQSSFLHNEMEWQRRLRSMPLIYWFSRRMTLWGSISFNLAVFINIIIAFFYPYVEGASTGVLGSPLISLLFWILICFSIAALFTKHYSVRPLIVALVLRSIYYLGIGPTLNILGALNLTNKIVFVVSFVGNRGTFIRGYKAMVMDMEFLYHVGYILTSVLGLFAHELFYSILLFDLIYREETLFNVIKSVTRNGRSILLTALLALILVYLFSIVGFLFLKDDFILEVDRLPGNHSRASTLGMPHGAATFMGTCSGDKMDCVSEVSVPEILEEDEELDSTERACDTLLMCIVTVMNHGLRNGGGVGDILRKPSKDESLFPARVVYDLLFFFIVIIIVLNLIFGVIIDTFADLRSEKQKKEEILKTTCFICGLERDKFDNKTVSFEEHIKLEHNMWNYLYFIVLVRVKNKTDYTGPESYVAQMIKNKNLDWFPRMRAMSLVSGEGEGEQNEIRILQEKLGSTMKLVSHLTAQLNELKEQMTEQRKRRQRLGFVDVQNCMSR
Description: as §1, §2, §3

[1] = system: cerebellar membranes (IP3R1); assay: ^3H-IP3 binding to cerebellar membranes; conditions: ^3H-IP3 1.5 nM, in CLM
Description: (§4) Reactions were terminated after 5 min by centrifugation (20,000× g, 5 min) for membranes, or by centrifugation after addition of poly(ethylene glycol)-8000 [30% (w/v), 500 μL] and γ-globulin (30 μL, 25 mg·mL^−1) for NT. […] Results were fitted to Hill equations using Prism, from which IC50 values were calculated.

[2] = system: permeabilized DT40-IP3R1-3 cells; assay: Ca^2+ uptake and Ca^2+ content of the intracellular stores of permeabilized DT40 cells; assay type: cell-based
Description: Briefly, the ER was loaded with indicator by incubating cells (∼5 × 10^7 mL^−1) in the dark with Mag-fluo-4AM (20 μM) in HEPES-buffered saline (HBS) containing 0.02% (v/v) Pluronic F127 for 1 h at 22°C. […] Ca^2+-free CLM had the following composition: 2 mM NaCl, 140 mM KCl, 1 mM EGTA, 20 mM PIPES, 2 mM MgCl2, pH 7.0. Permeabilized cells were then distributed into 96-well plates (50 μL, 5 × 10^5 cells per well), centrifuged (300× g, 2 min) and used for experiments at 20°C. […] After 2 min, when the ER had loaded to steady-state with Ca^2+, IP3 was added with CPA (10 μM) to inhibit further Ca^2+ uptake. […] The timings of antagonist additions are described in the figure legends. The affinity of each competitive antagonist (pKD) was determined from the intercept on the abscissa of the Schild plot.

HEK cells = assay: Carbachol-evoked Ca^2+ signals in intact HEK cells; assay type: cell-based; conditions: Homo sapiens, HEK293; intact fluo-4-loaded HEK cells; control cells; read-out: pEC50 for the carbachol-evoked Ca^2+ signals (converted)
Description: as §2

[3] = target: T4, NT2 (residues 1–604 of mouse IP3R2) (Mus musculus, UniProt Q9Z329); assay: Equilibrium-competition binding with ^3H-IP3 to purified NT2; conditions: NT versus corresponding full-length IP3R
T4 construct: N-terminal fragments (NT, residues 1–604) of rat IP3R1, mouse IP3R2 and rat IP3R3; GST (cleaved yes); made in house; host or cells: E. coli BL21-CodonPlus (DE3)-RILP
T4 sequence (Q9Z329 1-604): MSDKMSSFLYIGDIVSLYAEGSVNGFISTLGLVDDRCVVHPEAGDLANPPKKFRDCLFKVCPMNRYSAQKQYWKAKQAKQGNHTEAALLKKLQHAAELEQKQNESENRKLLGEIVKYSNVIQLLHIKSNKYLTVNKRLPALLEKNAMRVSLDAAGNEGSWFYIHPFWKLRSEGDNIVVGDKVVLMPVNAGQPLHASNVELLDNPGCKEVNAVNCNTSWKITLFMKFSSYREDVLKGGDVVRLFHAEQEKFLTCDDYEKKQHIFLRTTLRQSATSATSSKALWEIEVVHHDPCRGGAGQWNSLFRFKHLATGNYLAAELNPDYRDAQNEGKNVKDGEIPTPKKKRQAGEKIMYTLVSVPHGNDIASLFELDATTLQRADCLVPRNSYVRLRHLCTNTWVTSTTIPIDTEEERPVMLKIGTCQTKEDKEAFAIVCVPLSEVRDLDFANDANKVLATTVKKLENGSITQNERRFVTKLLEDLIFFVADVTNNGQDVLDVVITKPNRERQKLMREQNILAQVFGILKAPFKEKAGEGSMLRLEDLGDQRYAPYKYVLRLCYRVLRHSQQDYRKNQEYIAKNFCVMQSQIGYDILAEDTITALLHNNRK
Description: The plasmids used for bacterial expression of GST-tagged N-terminal fragments (NT, residues 1–604) of rat IP3R1, mouse IP3R2 and rat IP3R3 have been described, and their coding sequences have been confirmed (Khan et al., [2013]). Plasmids were transformed into BL21-CodonPlus (DE3)-RILP competent cells (Rossi and Taylor, [2011]), and grown for 12 h at 37°C in 20 mL of Luria-Bertani (LB) medium containing carbecillin (50 μg·mL^−1). The volume of medium was then increased to 1 L, and the incubation was continued at 37°C for 3–4 h until the OD600 reached 1–1.5. Protein expression was induced by addition of IPTG (0.5 mM) for 20 h at 15°C. Bacteria were harvested (6000× g, 5 min), washed twice with cold PBS, and the pellet was suspended (∼10^9 cells·mL^−1) in 50 mL of Tris-EDTA medium (TEM: 50 mM Tris, 1 mM EDTA, pH 8.3) supplemented with 10% PopCulture, 1 mM 2-mercaptoethanol and protease inhibitor cocktail (Roche, Burgess Hill, West Sussex, UK; 1 tablet per 50 mL). […]
as §4

[4] = IP3R2, IP3-evoked Ca^2+ release
[5] = IP3R1, AdA-evoked Ca^2+ release
[6] = IP3R1, IP3-evoked Ca^2+ release
[7] = IP3R1, heparin 400 μg·mL^−1, Δ = control – response with antagonist
[8] = IP3R3, AdA-evoked Ca^2+ release

**Q.** For `NCCOB(c1ccccc1)c1ccccc1` [2-APB, 2-aminoethoxydiphenyl borate], which “effect on IP3-evoked Ca^2+ release” value (mouse IP3R2; DT40-IP3R2 cells, 2-APB 50 μM) is on record?
**A.** The value was “no significant effect”.

**Q.** What about the ΔMax (mouse IP3R2; IP3R2, 2-APB 50 μM) of the same compound?
**A.** Its ΔMax is 0 ± 4%.

**Q.** What about the “effect on IP3-evoked Ca^2+ release” value (mouse IP3R2; IP3R2, 2-APB 100 μM) of the same compound?
**A.** The value was “no effect”.

**Q.** What about the ΔMax (rat IP3R1; IP3R1, 2-APB 50 μM) of the same compound?
**A.** The ΔMax was 0 ± 4%.

**Q.** And the ΔpEC50 (rat IP3R1; IP3R1, 2-APB 50 μM added 35 s before IP3)?
**A.** Its ΔpEC50 is 0.84 ± 0.12 M.

**Q.** What about the “effect on IP3-evoked Ca^2+ release” value (rat IP3R3; DT40-IP3R3 cells, 2-APB 50 μM) of the same compound?
**A.** The value was “no significant effect”.

**Q.** And the ΔMax (rat IP3R3; IP3R3, 2-APB 50 μM)?
**A.** The ΔMax was 8 ± 4%.

**Q.** What about the ΔpEC50 (rat IP3R3; IP3R3, 2-APB 50 μM) of the same compound?
**A.** Its ΔpEC50 is 0.02 ± 0.09 M.

**Q.** And the “effect on IP3-evoked Ca^2+ release” value (rat IP3R3; IP3R3, 2-APB 100 μM)?
**A.** The value was “some inhibition”.

**Q.** And the “effect on binding of ^3H-IP3 to cerebellar membranes” value [1]?
**A.** The value was “unaffected”.

**Q.** What about the “effect on Ca^2+ uptake by the ER” value ([2]; permeabilized DT40-IP3R1 cells, 50 μM 2-APB) of the same compound?
**A.** Its value is “no effect”.

**Q.** What about the “effect on steady-state Ca^2+ content of the ER” value ([2]; permeabilized DT40-IP3R1 cells, 2-APB concentrations higher than 50 μM) of the same compound?
**A.** Its value is “reduced the steady-state Ca^2+ content”.

**Q.** Which EC50 (rat IP3R1; permeabilized DT40-IP3R1 cells, read-out: pEC50 (IP3 or AdA-evoked Ca^2+ release) (converted)) does the source give for `Nc1ncnc2c1ncn2[C@@H]1O[C@H](CO)[C@@H](O[C@H]2O[C@H](CO)[C@@H](OP(=O)(O)O)[C@H](OP(=O)(O)O)[C@H]2O)[C@H]1OP(=O)(O)O` [AdA, adenophostin A] here?
**A.** The EC50 was 0.00447 µM.

**Q.** And the EC50 (rat IP3R3; permeabilized DT40-IP3R3 cells, read-out: pEC50 (IP3 or AdA-evoked Ca^2+ release) (converted))?
**A.** Its EC50 is 0.0195 µM.

**Q.** What does the source list for `Cn1c(=O)c2c(ncn2C)n(C)c1=O` [Caffeine]?
**A.** effect on binding of ^3H-IP3 to cerebellar membranes [1]: without affecting; effect on Ca^2+ content of the intracellular stores ([2]; DT40-IP3R1-3 cells, caffeine 70 mM added 2 min before ATP): significantly reduced

**Q.** For `C[N+](C)(C)CCOC(N)=O` [carbachol, Carbachol], which EC50 (HEK cells) is on record?
**A.** The EC50 was 10.2 µM.

**Q.** Heparin was tested. Which “affinity of the NT for heparin relative to that measured in functional analyses / full-length IP3R” value [3] did it give?
**A.** Its value is “up to 2000 fold”.

**Q.** And the “KD for heparin (Schild plot)” value (mouse IP3R2; [4])?
**A.** Its value is 22 µg/mL.

**Q.** And the “slope of the Schild plots” value (mouse IP3R2; [4])?
**A.** The value was 0.97 ± 0.06.

**Q.** What about the ΔMax (mouse IP3R2; IP3R2, heparin 800 μg·mL^−1) of the same compound?
**A.** Its ΔMax is −4 ± 2%.

**Q.** And the ΔpEC50 (mouse IP3R2; IP3R2, heparin 800 μg·mL^−1)?
**A.** The ΔpEC50 was 1.49 ± 0.09 M.

**Q.** And the “pEC50(IP3)-pKD(heparin)” value (mouse IP3R2; IP3R2, paired comparisons)?
**A.** Its value is 2.16 ± 0.09.

**Q.** And the “KD for heparin (Schild plot)” value (rat IP3R1; [5])?
**A.** Its value is 6.9 µg/mL.

**Q.** What about the “slope of the Schild plots” value (rat IP3R1; [5]) of the same compound?
**A.** The value was 0.94 ± 0.03.

**Q.** And the “KD for heparin (Schild plot)” value (rat IP3R1; [6])?
**A.** Its value is 4.1 µg/mL.

**Q.** What about the “slope of the Schild plots” value (rat IP3R1; [6]) of the same compound?
**A.** The value was 0.95 ± 0.02.

**Q.** And the ΔMax (rat IP3R1; [7])?
**A.** Its ΔMax is −7 ± 2%.

**Q.** What about the ΔpEC50 (rat IP3R1; [7]) of the same compound?
**A.** Its ΔpEC50 is 1.88 ± 0.05 M.

**Q.** And the “pEC50(IP3)-pKD(heparin)” value (rat IP3R1; IP3R1, paired comparisons)?
**A.** The value was 2.08 ± 0.02.

**Q.** And the “KD for heparin (Schild plot)” value (rat IP3R3; [8])?
**A.** The value was 2.1 µg/mL.

**Q.** And the “slope of the Schild plots” value (rat IP3R3; [8])?
**A.** Its value is 0.98 ± 0.04.

**Q.** What about the “slope of the Schild plots” value (rat IP3R3; IP3R3, IP3-evoked Ca^2+ release) of the same compound?
**A.** The value was 1.14 ± 0.41.

**Q.** And the “KD for heparin (Schild plot)” value (rat IP3R3; IP3R3, IP3-evoked Ca^2+ release, 40% Ca^2+ release)?
**A.** Its value is 2.8 µg/mL.

**Q.** What about the ΔMax (rat IP3R3; IP3R3, heparin 400 μg·mL^−1) of the same compound?
**A.** The ΔMax was −3 ± 3%.

**Q.** What about the ΔpEC50 (rat IP3R3; IP3R3, heparin 400 μg·mL^−1) of the same compound?
**A.** The ΔpEC50 was 2.34 ± 0.07 M.

**Q.** And the “pEC50(IP3)-pKD(heparin)” value (rat IP3R3; IP3R3, paired comparisons)?
**A.** Its value is 1.11 ± 0.08.
